Consider 1 compound from patent US11613531B2, “Inhibitors of RHO associated coiled-coil containing protein kinase” (Kadmon Corporation, LLC, priority 2017, dated 2023).

The test system of data set [1] is Histamine-induced vascular permeability in mice. Briefly: Histamine-induced vascular permeability model. It is filed as in vivo. The note with it: single oral dose 1 hr. prior to histamine injection. An excerpt: FIG. 12a. ROCK inhibition stabilizes the endothelial barrier function in a histamine-induced vascular permeability model in mice. Representative images of Evan's Blue dye extravasation induced by histamine in the skin of ROCK inhibitor and vehicle treated mice, relative to the control compound (salbutamol). ROCK inhibitor induces vascular barrier stabilization following single dose of compound administered 1 hr. prior to histamine injection.
FIG. 12b. Quantitation of the decrease in spot area size and Evan's Blue dye amount in the skin of ROCK inhibitor treated mice following the induction of capillary leakage by histamine injection.
Histamine-Induced Vascular Permeability Model in Mice […]
20 minutes post challenge with histamine, animals were euthanized. The skin was then inverted, the lesion diameters were measured. The area of the lesion was calculated and expressed in square millimeters. Following diameter measurements, Evan's Blue dye was extracted from the skin tissue and the optical density was measured. Data are calculated against a spiked in Evan's Blue standard curve. […]
The extent of compound efficacy was quantitated by calculating both the overall skin spot area and the amount of Evans Blue dye permeating the skin. 20 Minutes post challenge with histamine, animals were euthanized, the lesion diameters were measured. […]

Data set [2] relates to Bleomycin induced lung fibrosis in mice. Briefly: Prophylactic bleomycin induced lung fibrosis model. The format is in vivo. The note with it: 21-day treatment. An excerpt:
FIG. 9a. ROCK inhibitor is active in a mouse model of pulmonary fibrosis. Representative images of lung sections stained with Masson's trichrome to visualized fibrosis in the lungs of mice following 21-day treatment with ROCK inhibitor in the bleomycin-induced lung injury model.
FIG. 9b. […] Ashcroft fibrotic indices, α-smooth muscle actin (αSMA) percentage positive area and total leukocytes count in bronchoalveolar lavage fluid obtained from lungs of mice in the bleomycin lung fibrosis model treated with compound of Example 192.
Prophylactic Efficacy of Compounds in Bleomycin Induced Lung Fibrosis in Mice
Male C57B/L6 mice were ear tagged and weighed prior to the start of the study. Treatment group animals were treated with the compound on day −1 pre-bleomycin and all subsequent days post-bleomycin administration. On day 0, animals in disease groups received 1.5 U/kg dose of bleomycin via oropharyngeal route. […] Animals were closely monitored daily till the end of the study. […] Blood samples were used for plasma preparation; total leukocytes were counted in BAL fluid; and lungs were fixed in 10% neutral buffered formalin for histopathological analysis.
Based on the strong anti-fibrotic cellular activity of ROCK inhibitors of this invention, the ability of such inhibitors to attenuate fibrosis in the in vivo setting was assessed in several mouse models of disease. […]

Data set [3] deals with ppMlc (T18/S19) levels in A7R5 cells. Briefly: A7R5 in-cell ELISA (pMLC). It is filed as cell-based, Rat. The following applies: Rattus norvegicus, A7R5, A7R5 cells. The essentials:
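A7R5 rat aortic smooth muscle cells seeded 24 h, then treated 90 min with a 9-point 2-fold compound dilution series. Fixed cells probed for ppMlc (T18/S19) by colorimetric in-cell ELISA; cellular IC50 from nonlinear regression curve fit.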
(In an ELISA, binding on a coated surface is turned into a signal by an enzyme label.)

Regarding `Clc1cnc(N2C3CCC2CNC3)nc1Nc1ccc2[nH]ncc2c1` [Example 192, N-(2-(3,8-diazabicyclo[3.2.1]octan-8-yl)-5-chloropyrimidin-4-yl)-1H-indazol-5-amine], the “vascular permeability induced by histamine (Evan's Blue dye extravasation)” value in data set [1] is given as “blocked”. For the same compound, the “activity in bleomycin lung fibrosis model (Ashcroft fibrotic indices, αSMA percentage positive area, total leukocytes count in BAL fluid)” value in data set [2] is reported as “positive activity”. In addition, in data set [3] (1 μM compound, read-out: pMLC % inh A7R5 @ [conc]), the inhibition at 1 µM is 53.5%. In data set [3] (ppMlc (T18/S19)), the IC50 (usually the point on the concentration scale where inhibition reaches its midpoint) was 98 nM.
